This note sets out measurements from patent publication US11331369B2, “Endoparasitic depsipeptides” (Zoetis Services LLC, priority 2017, dated 2022).

A value given as a limit tells only on which side of the number the result lay.

Holding throughout (type): cell-based
Experiment [1] relates to 4th stage larvae (L4) of Dirofilaria immitis. Put plainly: Dirofilaria immitis, L4 Stage (DiL4) In Vitro Assay. Conditions: Dirofilaria immitis, 72 h, read-out: DiL4 Minimum Effective Dose (MED), approximately 72 hours incubation; L4 larvae assessed for survival or paralysis.
For experiment [2], the system named is microfilariae of Dirofilaria immitis. Put plainly: Dirofilaria immitis, Microfilaria (DiMF) In vitro Assay. Conditions: 72 h, read-out: DiMF Minimum Effective Dose (MED), approximately 72 hours incubation, microfilariae assessed for survival or paralysis.
Experiment [3] deals with third stage larvae of Haemonchus contortus. The experiment is described as follows: Haemonchus contortus L3 (HcL3) Assay. The conditions noted are these: 96 h, read-out: HcL3 Minimum Effective Dose (MED).

Take `CC(C)C[C@H]1C(=O)O[C@H](Cc2ccc(Cn3ncnc3C(C)(C)C)cc2)C(=O)N(C)[C@@H](CC(C)C)C(=O)O[C@H](C)C(=O)N(C)[C@@H](CC(C)C)C(=O)O[C@H](Cc2ccc(Cn3ncnc3C(C)(C)C)cc2)C(=O)N(C)[C@@H](CC(C)C)C(=O)O[C@H](C)C(=O)N1C` [Example 9-51, (3S,6R,9S,12R,15S,18R,21S,24R)-6,18-bis(4-((5-(tert-butyl)-1H-1,2,4-triazol-1-yl)methyl)benzyl)-3,9,15,21-tetraisobutyl-4,10,12,16,22,24-hexamethyl-1,7,13,19-tetraoxa-4,10,16,22-tetraazacyclotetracosan-2,5,8,11,14,17,20,23-octaone]: the minimal effective concentration fell in the range of 0.001 to 0.01 µM in experiment [1], 0.001 to 0.01 µM in experiment [2] and 1 to 10 µM in experiment [3].

With `CC(C)C[C@H]1C(=O)O[C@H](Cc2ccc(Cn3cc(I)cn3)cc2)C(=O)N(C)[C@@H](CC(C)C)C(=O)O[C@H](C)C(=O)N(C)[C@@H](CC(C)C)C(=O)O[C@H](Cc2ccc(Cn3cc(I)cn3)cc2)C(=O)N(C)[C@@H](CC(C)C)C(=O)O[C@H](C)C(=O)N1C` [Example 1b-46, (3S,6R,9S,12R,15S,18R,21S,24R)-6,18-bis(4-((4-iodo-1H-pyrazol-1-yl)methyl)benzyl)-3,9,15,21-tetraisobutyl-4,10,12,16,22,24-hexamethyl-1,7,13,19-tetraoxa-4,10,16,22-tetraazacyclotetracosan-2,5,8,11,14,17,20,23-octaone], the minimal effective concentration in experiment [1] lay in the range of 0.0001 to 0.001 µM; in experiment [2] it was 0.001 to 0.01 µM; in experiment [3], 1 to 10 µM.

Regarding `CC(C)C[C@H]1C(=O)O[C@H](Cc2ccc(Cn3nccc3C3CC3(F)F)cc2)C(=O)N(C)[C@@H](CC(C)C)C(=O)O[C@H](C)C(=O)N(C)[C@@H](CC(C)C)C(=O)O[C@H](Cc2ccc(Cn3nccc3C3CC3(F)F)cc2)C(=O)N(C)[C@@H](CC(C)C)C(=O)O[C@H](C)C(=O)N1C` (stereo partly drawn) [Example 1b-216, (3S,6R,9S,12R,15S,18R,21S,24R)-6,18-bis(4-((5-(2,2-difluorocyclopropyl)-1H-pyrazol-1-yl)methyl)benzyl)-3,9,15,21-tetraisobutyl-4,10,12,16,22,24-hexamethyl-1,7,13,19-tetraoxa-4,10,16,22-tetraazacyclotetracosan-2,5,8,11,14,17,20,23-octaone], the results for the minimal effective concentration in experiment [1], in experiment [2] and in experiment [3] were at most 0.0001 µM, 0.001 to 0.01 µM and at most 1 µM, respectively.

With `CC(C)C[C@H]1C(=O)O[C@H](Cc2ccc(C(C3CC3)n3cc(OC(C)C)cn3)cc2)C(=O)N(C)[C@@H](CC(C)C)C(=O)O[C@H](C)C(=O)N(C)[C@@H](CC(C)C)C(=O)O[C@H](Cc2ccc(C(C3CC3)n3cc(OC(C)C)cn3)cc2)C(=O)N(C)[C@@H](CC(C)C)C(=O)O[C@H](C)C(=O)N1C` (stereo partly drawn) [Example 1c-5, (3S,6R,9S,12R,15S,18R,21S,24R)-6,18-bis(4-(cyclopropyl(4-isopropoxy-1H-pyrazol-1-yl)methyl)benzyl)-3,9,15,21-tetraisobutyl-4,10,12,16,22,24-hexamethyl-1,7,13,19-tetraoxa-4,10,16,22-tetraazacyclotetracosan-2,5,8,11,14,17,20,23-octaone], the minimal effective concentration in experiment [1] is 0.0001 to 0.001 µM; in experiment [2] it was 0.001 to 0.01 µM; in experiment [3] it was at most 1 µM.

As for `CCC(C)c1ccnn1Cc1ccc(C[C@H]2OC(=O)[C@H](CC(C)C)N(C)C(=O)[C@@H](C)OC(=O)[C@H](CC(C)C)N(C)C(=O)[C@@H](Cc3ccc(Cn4nccc4C(C)CC)cc3)OC(=O)[C@H](CC(C)C)N(C)C(=O)[C@@H](C)OC(=O)[C@H](CC(C)C)N(C)C2=O)cc1` (stereo partly drawn) [Example 1b-210, (3S,6R,9S,12R,15S,18R,21S,24R)-6,18-bis(4-((5-(sec-butyl)-1H-pyrazol-1-yl)methyl)benzyl)-3,9,15,21-tetraisobutyl-4,10,12,16,22,24-hexamethyl-1,7,13,19-tetraoxa-4,10,16,22-tetraazacyclotetracosan-2,5,8,11,14,17,20,23-octaone], the minimal effective concentration in experiment [1] lay in the range of 0.0001 to 0.001 µM; in experiment [2], 0.01 to 0.1 µM; in experiment [3] it was 1 to 10 µM.

In the case of `CC(C)C[C@H]1C(=O)O[C@H](Cc2ccc(Cn3nccc3C(C)(C)C)cc2)C(=O)N(C)[C@@H](CC(C)C)C(=O)O[C@H](C)C(=O)N(C)[C@@H](CC(C)C)C(=O)O[C@H](Cc2ccc(Cn3nccc3C(C)(C)C)cc2)C(=O)N(C)[C@@H](CC(C)C)C(=O)O[C@H](C)C(=O)N1C` [Example 1b-127, (3S,6R,9S,12R,15S,18R,21S,24R)-6,18-bis(4-((5-(tert-butyl)-1H-pyrazol-1-yl)methyl)benzyl)-3,9,15,21-tetraisobutyl-4,10,12,16,22,24-hexamethyl-1,7,13,19-tetraoxa-4,10,16,22-tetraazacyclotetracosan-2,5,8,11,14,17,20,23-octaone], the minimal effective concentration in experiment [1] was in the range of 0.001 to 0.01 µM; in experiment [2], 0.01 to 0.1 µM; in experiment [3], 1 to 10 µM.

Turning to `CC(C)C[C@H]1C(=O)O[C@H](Cc2ccc(Cn3nccc3C3(F)CC3)cc2)C(=O)N(C)[C@@H](CC(C)C)C(=O)O[C@H](C)C(=O)N(C)[C@@H](CC(C)C)C(=O)O[C@H](Cc2ccc(Cn3nccc3C3(F)CC3)cc2)C(=O)N(C)[C@@H](CC(C)C)C(=O)O[C@H](C)C(=O)N1C` [Example 1b-215, (3S,6R,9S,12R,15S,18R,21S,24R)-6,18-bis(4-((5-(1-fluorocyclopropyl)-1H-pyrazol-1-yl)methyl)benzyl)-3,9,15,21-tetraisobutyl-4,10,12,16,22,24-hexamethyl-1,7,13,19-tetraoxa-4,10,16,22-tetraazacyclotetracosan-2,5,8,11,14,17,20,23-octaone], the minimal effective concentration in experiment [1] is 0.0001 to 0.001 µM; in experiment [2] it was 0.001 to 0.01 µM; in experiment [3], at most 1 µM.

Regarding `CC(C)C[C@H]1C(=O)O[C@H](Cc2ccc(Cn3nc(C(F)F)cc3C(F)F)cc2)C(=O)N(C)[C@@H](CC(C)C)C(=O)O[C@H](C)C(=O)N(C)[C@@H](CC(C)C)C(=O)O[C@H](Cc2ccc(Cn3nc(C(F)F)cc3C(F)F)cc2)C(=O)N(C)[C@@H](CC(C)C)C(=O)O[C@H](C)C(=O)N1C` [Example 1b-89, (3S,6R,9S,12R,15S,18R,21S,24R)-6,18-bis(4-((3,5-bis(difluoromethyl)-1H-pyrazol-1-yl)methyl)benzyl)-3,9,15,21-tetraisobutyl-4,10,12,16,22,24-hexamethyl-1,7,13,19-tetraoxa-4,10,16,22-tetraazacyclotetracosan-2,5,8,11,14,17,20,23-octaone], the minimal effective concentration in experiment [1] is at most 0.0001 µM; in experiment [2], 0.001 to 0.01 µM; in experiment [3] it was at most 1 µM.

Take `CC(C)C[C@H]1C(=O)O[C@H](Cc2ccc(Cn3nccc3C3(C)CC3)cc2)C(=O)N(C)[C@@H](CC(C)C)C(=O)O[C@H](C)C(=O)N(C)[C@@H](CC(C)C)C(=O)O[C@H](Cc2ccc(Cn3nccc3C3(C)CC3)cc2)C(=O)N(C)[C@@H](CC(C)C)C(=O)O[C@H](C)C(=O)N1C` [Example 1b-219, (3S,6R,9S,12R,15S,18R,21S,24R)-3,9,15,21-tetraisobutyl-4,6,10,16,18,22-hexamethyl-12,24-bis(4-((5-(1-methylcyclopropyl)-1H-pyrazol-1-yl)methyl)benzyl)-1,7,13,19-tetraoxa-4,10,16,22-tetraazacyclotetracosan-2,5,8,11,14,17,20,23-octaone]: the minimal effective concentration in experiment [1] is 0.0001 to 0.001 µM; in experiment [2], 0.01 to 0.1 µM; in experiment [3], at most 1 µM.

Turning to `CC(C)C[C@H]1C(=O)O[C@H](Cc2ccc(Cn3cnc(Br)c3)cc2)C(=O)N(C)[C@@H](CC(C)C)C(=O)O[C@H](C)C(=O)N(C)[C@@H](CC(C)C)C(=O)O[C@H](Cc2ccc(Cn3cnc(Br)c3)cc2)C(=O)N(C)[C@@H](CC(C)C)C(=O)O[C@H](C)C(=O)N1C` [Example 6-12, (3S,6R,9S,12R,15S,18R,21S,24R)-6,18-bis(4-((4-bromo-1H-imidazol-1-yl)methyl)benzyl)-3,9,15,21-tetraisobutyl-4,10,12,16,22,24-hexamethyl-1,7,13,19-tetraoxa-4,10,16,22-tetraazacyclotetracosan-2,5,8,11,14,17,20,23-octaone], the minimal effective concentration was at most 0.0001 µM in experiment [1], 0.001 to 0.01 µM in experiment [2] and 1 to 10 µM in experiment [3].

Turning to `CC(C)C[C@H]1C(=O)O[C@H](Cc2ccc(Cn3nccc3C3(C)COC3)cc2)C(=O)N(C)[C@@H](CC(C)C)C(=O)O[C@H](C)C(=O)N(C)[C@@H](CC(C)C)C(=O)O[C@H](Cc2ccc(Cn3nccc3C3(C)COC3)cc2)C(=O)N(C)[C@@H](CC(C)C)C(=O)O[C@H](C)C(=O)N1C` [Example 1b-221, (3S,6R,9S,12R,15S,18R,21S,24R)-3,9,15,21-tetraisobutyl-4,6,10,16,18,22-hexamethyl-12,24-bis(4-((5-(3-methyloxetan-3-yl)-1H-pyrazol-1-yl)methyl)benzyl)-1,7,13,19-tetraoxa-4,10,16,22-tetraazacyclotetracosan-2,5,8,11,14,17,20,23-octaone], the values for the minimal effective concentration in experiment [1], in experiment [2] and in experiment [3] were 0.001 to 0.01 µM, 0.001 to 0.01 µM and 1 to 10 µM, respectively.

Turning to `COCCOc1cnn(Cc2ccc(C[C@H]3OC(=O)[C@H](CC(C)C)N(C)C(=O)[C@@H](C)OC(=O)[C@H](CC(C)C)N(C)C(=O)[C@@H](Cc4ccc(Cn5cc(OCCOC)cn5)cc4)OC(=O)[C@H](CC(C)C)N(C)C(=O)[C@@H](C)OC(=O)[C@H](CC(C)C)N(C)C3=O)cc2)c1` [Example 1b-203, (3S,6R,9S,12R,15S,18R,21S,24R)-3,9,15,21-tetraisobutyl-6,18-bis[[4-[[4-(2-methoxyethoxy)pyrazol-1-yl]methyl]phenyl]methyl]-4,10,12,16,22,24-hexamethyl-1,7,13,19-tetraoxa-4,10,16,22-tetrazacyclotetracosane-2,5,8,11,14,17,20,23-octaone], the minimal effective concentration lay within 0.001 to 0.01 µM in experiment [1], 0.001 to 0.01 µM in experiment [2] and 10 to 100 µM in experiment [3].
